Earlier results, collected in PMC7259638, “Characterization of the intestinal absorption of morroniside from Cornus officinalis Sieb. et Zucc via a Caco-2 cell monolayer model” (PLoS ONE, 2020).

Tested on: Caco-2 cell model
Parameters: method as in PMID 30671130
Settings: cited from earlier work

Question: With `COC(=O)C1=CO[C@@H](O[C@@H]2O[C@H](CO)[C@@H](O)[C@H](O)[C@H]2O)[C@@H]2[C@@H](C)[C@@H](O)C[C@H]12` [loganin] as the compound, how does the “intestinal permeability (in words)” value (human intestinal Caco-2 cell model) read?
Answer: good intestinal permeability

Question: What about the BCRP substrate status (previous study) of the same compound?
Answer: substrate of BCRP
